Columns and labels:
ALOMY = test: Pre-emergence action at 320 g/ha against ALOMY; type: in vivo, Alopecurus myosuroides; details: scored visually after about 3 weeks vs untreated controls (100% = plants have died)
Summary of the method: (§1)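 Greenhouse pot trial in which formulated compound (wettable powder or emulsion concentrate) goes onto the soil surface right after sowing, at a spray volume of 600 l/ha including 0.5% additive. Effects are judged visually after about 3 weeks (0% = like control, 100% = dead).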

SETVI [1] = test: Pre-emergence action against SETVI, 1280 g/ha; type: in vivo, Setaria viridis; details: visual scoring after about 3 weeks vs untreated controls, 100% = plants have died, 0% = like control plants
Summary of the method: (§2)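 Visual percent-effect ratings (0% = like control, 100% = plants dead) were taken about 3 weeks after pre-emergence soil-surface application of WP/EC aqueous formulations with 0.5% additive, 600 L water/ha. Seeds were sown in sandy loam and grown in the greenhouse.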

POAAN [2] = test: Pre-emergence action against POAAN, 1280 g/ha; type: in vivo, Poa annua; details: visual scoring after about 3 weeks vs untreated controls, 100% = plants have died, 0% = like control plants
Summary of the method: as §2

STEME [3] = test: Post-emergence action against STEME, 1.28 kg/ha; type: in vivo, Stellaria media; details: dosage 1280 g/ha, visual rating about 3 weeks after treatment vs untreated controls (100% = plants died)
Summary of the method: (§3)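 Herbicidal action is estimated by eye after about three weeks under optimum greenhouse conditions, on a 0–100% scale against untreated plants. Compounds are applied post-emergence to one-leaf-stage weeds as aqueous WP or EC preparations containing 0.5% additive, sprayed at 600 L/ha.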

ABUTH = test: Post-emergence action against ABUTH, 1.28 kg/ha; type: in vivo, Abutilon theophrasti; details: dosage 1280 g/ha, visual rating about 3 weeks after treatment vs untreated controls (100% = plants died)
Summary of the method: as §3

AMARE [4] = test: Pre-emergence action against AMARE, 1280 g/ha; type: in vivo, Amaranthus retroflexus; details: scored visually after about 3 weeks vs untreated controls (100% = plants have died)
Summary of the method: as §2

POAAN [5] = test: Post-emergence action against POAAN, 1.28 kg/ha; type: in vivo, Poa annua; details: dosage 1280 g/ha, visual rating about 3 weeks after treatment vs untreated controls
Summary of the method: as §3

POLCO = test: Pre-emergence action at 320 g/ha against POLCO; type: in vivo, Fallopia convolvulus (Polygonum convolvulus); details: visual scoring after about 3 weeks vs untreated controls
Summary of the method: as §1

ECHCG = test: Pre-emergence action against ECHCG, 1280 g/ha; type: in vivo, Echinochloa crus-galli; details: visual scoring after about 3 weeks vs untreated controls, 100% = plants have died, 0% = like control plants
Summary of the method: as §2

DIGSA = test: Pre-emergence action at 320 g/ha against DIGSA; type: in vivo, Digitaria sanguinalis; details: visual scoring after about 3 weeks vs untreated controls
Summary of the method: as §1

AMARE [6] = test: Pre-emergence action at 320 g/ha against AMARE; type: in vivo, Amaranthus retroflexus; details: visual scoring after about 3 weeks vs untreated controls
Summary of the method: as §1

STEME [7] = test: Pre-emergence action against STEME, 1280 g/ha; type: in vivo, Stellaria media; details: scored visually after about 3 weeks vs untreated controls (100% = plants have died)
Summary of the method: as §2

SETVI [8] = test: Pre-emergence action at 320 g/ha against SETVI; type: in vivo, Setaria viridis; details: visual scoring after about 3 weeks vs untreated controls
Summary of the method: as §1

MATIN = test: Pre-emergence action against MATIN, 1280 g/ha; type: in vivo, Tripleurospermum inodorum (Matricaria inodora); details: scored visually after about 3 weeks vs untreated controls (100% = plants have died)
Summary of the method: as §2

Compound | Post-emergence action against STEME (STEME [3]) [%] | Post-emergence action against ABUTH (ABUTH) [%] | Pre-emergence action at 320 g/ha against ALOMY in % (ALOMY) [%] | Pre-emergence action against SETVI (SETVI [1]) [%] | Pre-emergence action against POAAN (POAAN [2]) [%] | Pre-emergence action against AMARE (AMARE [4]) [%] | Post-emergence action against POAAN (POAAN [5]) [%] | Pre-emergence action against POLCO in % (POLCO) [%] | Pre-emergence action against ECHCG (ECHCG) [%] | Pre-emergence action against DIGSA in % (DIGSA) [%] | Pre-emergence action against AMARE in % (AMARE [6]) [%] | Pre-emergence action against STEME (STEME [7]) [%] | Pre-emergence action against SETVI in % (SETVI [8]) [%] | Pre-emergence action against MATIN (MATIN) [%] | other results
CCOC(=O)COc1nn(-c2ccccc2F)c(-c2ccc(F)nc2)c1Br [VII-012, Ethyl {[4-bromo-1-(2-fluorophenyl)-5-(6-fluoropyridin-3-yl)-1H-pyrazol-3-yl]oxy}acetate] | 100 | 100 | – | – | – | – | – | – | – | – | – | – | – | – | pest or weed control at 320 g/ha (ALOMY; Alopecurus myosuroides, 504 h): 100%; pest or weed control at 1280 g/ha (SETVI [1]; Setaria viridis, 504 h): 100%; pest or weed control at 1280 g/ha (POAAN [2]; Poa annua, 504 h): 100%; pest or weed control at 1280 g/ha (AMARE [4]; Amaranthus retroflexus, 504 h): 100%; pest or weed control at 1280 g/ha (POAAN [5]; Poa annua, 504 h): 100%; pest or weed control at 320 g/ha (POLCO; Fallopia convolvulus, 504 h): 90%; pest or weed control at 1280 g/ha (ECHCG; Echinochloa crus-galli, 504 h): 100%; pest or weed control at 320 g/ha (DIGSA; Digitaria sanguinalis, 504 h): 100%; pest or weed control at 320 g/ha (AMARE [6]; Amaranthus retroflexus, 504 h): 100%; pest or weed control at 1280 g/ha (STEME [7]; Stellaria media, 504 h): 90%; pest or weed control at 320 g/ha (SETVI [8]; Setaria viridis, 504 h): 100%; pest or weed control at 1280 g/ha (MATIN; Tripleurospermum inodorum, 504 h): 100%
COC(=O)COc1nn(-c2ccc(F)cc2)c(-c2cccnc2)c1Br [VII-028] | 100 | 90 | 100 | 100 | 100 | 90 | 90 | 90 | 100 | 90 | 90 | 100 | 100 | 100 | –
COC(=O)C(C)Oc1nn(-c2ccccc2)c(-c2cccnc2)c1Cl (stereo not shown) [VII-032] | 100 | 90 | 100 | 100 | 100 | 100 | 100 | 90 | 100 | 90 | 100 | 100 | 90 | 90 | –
O=C(O)COc1nn(-c2ccccc2F)c(-c2ccc(F)nc2)c1I [VII-037] | 100 | 90 | 100 | 100 | 100 | 100 | 100 | 100 | 100 | 100 | 100 | 100 | 100 | 100 | –
COC(=O)COc1nn(-c2ccccc2F)c(-c2ccc(F)nc2)c1F [VII-040] | 100 | 90 | 100 | 100 | 100 | 100 | 100 | 90 | 100 | 100 | 100 | 100 | 100 | 100 | –
CCOC(=O)C(C)Oc1nn(-c2ccccc2F)c(-c2ccc(F)nc2)c1C(F)(F)F (stereo not shown) [VII-066] | 100 | 90 | 100 | 100 | 100 | 100 | 100 | 90 | 100 | 100 | 100 | 100 | 80 | 90 | –
COC(=O)COc1nn(-c2cc(F)ccc2F)c(-c2ccc(F)nc2)c1Br [VII-089] | 100 | 90 | 100 | 100 | 100 | 100 | 100 | 100 | 100 | 100 | 100 | 90 | 100 | 100 | –
COC(=O)[C@H](C)Oc1nn(-c2cc(F)ccc2F)c(-c2ccc(F)nc2)c1Br [VII-107] | 100 | 90 | 80 | 100 | 100 | 100 | 100 | 100 | 90 | 100 | 100 | 100 | 100 | 90 | –

From patent US12180187B2, “1-phenyl-5-azinylpyrazolyl-3-oxyalkyl acids and their use for controlling unwanted plant growth” (BAYER AKTIENGESELLSCHAFT, priority 2019, dated 2024)
